According to ChEMBL document CHEMBL2401638, “Design and synthesis of biquinolone-isoniazid hybrids as a new class of antitubercular and antimicrobial agents” (Eur J Med Chem, 2013):
In brackets after ≈: the same amount, converted by molar mass.

How the values were obtained:
[1] = system: Mycobacterium tuberculosis; assay: Antituberculosis activity against Mycobacterium tuberculosis H37Rv assessed as growth inhibition at 250 ug/ml after 12 to 28 days by Lowenstein-Jensen method relative to control; assay type: functional; conditions: read-out: GI
[2] = system: Salmonella typhi; assay: Antibacterial activity against Salmonella typhi MTCC 98 assessed as growth inhibition by broth microdilution method; assay type: functional, Salmonella enterica subsp. enterica serovar Typhi; conditions: Salmonella enterica
[3] = Cytotoxicity in Artemia cysts assessed as mortality of nauplii at 40 ug/mL after 24 hrs relative to control; assay type: organism-based; conditions: in vivo
[4] = Cytotoxicity in Artemia cysts assessed as mortality of nauplii after 24 hrs; assay type: organism-based; conditions: in vivo
[5] = system: Escherichia coli; assay: Antibacterial activity against Escherichia coli MTCC 443 assessed as growth inhibition by broth microdilution method; assay type: functional
[6] = Cytotoxicity in Artemia cysts assessed as mortality of nauplii at 50 ug/mL after 24 hrs relative to control; assay type: organism-based; conditions: in vivo
[7] = system: Pseudomonas aeruginosa; assay: Antibacterial activity against Pseudomonas aeruginosa MTCC 1688 assessed as growth inhibition by broth microdilution method; assay type: functional
[8] = Cytotoxicity in Artemia cysts assessed as mortality of nauplii at 10 ug/mL after 24 hrs relative to control; assay type: organism-based; conditions: in vivo
[9] = system: Bacillus subtilis; assay: Antibacterial activity against Bacillus subtilis MTCC 441 assessed as growth inhibition by broth microdilution method; assay type: functional
[10] = system: Clostridium tetani; assay: Antibacterial activity against Clostridium tetani MTCC 449 assessed as growth inhibition by broth microdilution method; assay type: functional
[11] = system: Mycobacterium tuberculosis; assay: Antituberculosis activity against Mycobacterium tuberculosis H37Rv assessed as growth inhibition after 12 to 28 days by Lowenstein-Jensen method; assay type: functional
[12] = Cytotoxicity in Artemia cysts assessed as mortality of nauplii at 30 ug/mL after 24 hrs relative to control; assay type: organism-based; conditions: in vivo
[13] = Cytotoxicity in Artemia cysts assessed as mortality of nauplii at 20 ug/mL after 24 hrs relative to control; assay type: organism-based; conditions: in vivo
[14] = system: Candida albicans; assay: Antifungal activity against Candida albicans MTCC 227 assessed as growth inhibition by broth microdilution method; assay type: functional
[15] = Cytotoxicity in Artemia cysts assessed as mortality of nauplii at 5 ug/mL after 24 hrs relative to control; assay type: organism-based; conditions: in vivo
[16] = system: Staphylococcus aureus; assay: Antibacterial activity against Staphylococcus aureus MTCC 96 assessed as growth inhibition by broth microdilution method; assay type: functional
[17] = system: Trichophyton rubrum; assay: Antifungal activity against Trichophyton rubrum MTCC 296 assessed as growth inhibition by broth microdilution method; assay type: functional

Compound | inhibition of growth at 250 µg/mL [1] [%] | MIC [2] [µg/mL] | mortality at 24 h, 40 ug/mL [3] [%] | LC50 at 24 h [4] [µg/mL] | MIC [5] [µg/mL] | mortality at 24 h, 50 ug/mL [6] [%] | MIC [7] [µg/mL] | mortality at 24 h, 10 ug/mL [8] [%] | MIC [9] [µg/mL] | MIC [10] [µg/mL] | MIC [11] [µg/mL] | mortality at 24 h, 30 ug/mL [12] [%] | mortality at 24 h, 20 ug/mL [13] [%] | MIC [14] [µg/mL] | mortality at 24 h, 5 ug/mL [15] [%] | MIC [16] [µg/mL] | MIC [17] [µg/mL]
C=CCn1c(=O)c(C2C(C(=O)OCC)=C(N)N(NC(=O)c3ccncc3)C3=C2C(=O)CC(C)(C)C3)cc2cc(C)ccc21 (stereo not drawn) | 94 | 125 | 60 | 28.6 (≈ 49.1 µM) | 62.5 | 80 | 500 | 20 | 500 | 125 | 62.5 (≈ 107 µM) | 40 | 30 | 500 | 0 | 125 | 1000
C=CCn1c(=O)c(C2C(C(=O)OC)=C(N)N(NC(=O)c3ccncc3)C3=C2C(=O)CC(C)(C)C3)cc2cc(OC)ccc21 (stereo not drawn) | 45 | 200 |  |  | 200 |  | 250 |  | 250 | 200 |  |  |  | 1000 |  | 250 | 500
C=CCn1c(=O)c(C2C(C(=O)OC(C)C)=C(N)N(NC(=O)c3ccncc3)C3=C2C(=O)CC(C)(C)C3)cc2ccccc21 (stereo not drawn) | 78 | 25 |  |  | 200 |  | 250 |  | 500 | 500 |  |  |  | 1000 |  | 500 | 250
C=CCn1c(=O)c(C2C(C(=O)OC(C)C)=C(N)N(NC(=O)c3ccncc3)C3=C2C(=O)CC(C)(C)C3)cc2cc(OC)ccc21 (stereo not drawn) | 74 | 250 |  |  | 200 |  | 250 |  | 250 | 500 |  |  |  | 1000 |  | 500 | 500
CCn1cc(C(=O)O)c(=O)c2cc(F)c(N3CCNCC3)cc21 [NORFLOXACIN] |  | 10 |  |  | 10 |  | 10 |  | 100 | 50 |  |  |  |  |  | 10 | 
C=CCn1c(=O)c(C2C(C(=O)OCC)=C(N)N(NC(=O)c3ccncc3)C3=C2C(=O)CCC3)cc2cc(Cl)ccc21 (stereo not drawn) | 87 | 250 |  |  | 100 |  | 500 |  | 250 | 125 |  |  |  | 250 |  | 100 | 1000
O=C(N[C@H](CO)[C@H](O)c1ccc([N+](=O)[O-])cc1)C(Cl)Cl [CHLORAMPHENICOL] |  | 50 |  |  | 50 |  | 50 |  | 50 | 50 |  |  |  |  |  | 50 | 
NYSTATIN |  |  |  |  |  |  |  |  |  |  |  |  |  | 100 |  |  | 100
C=CCn1c(=O)c(C2C(C(=O)OC(C)C)=C(N)N(NC(=O)c3ccncc3)C3=C2C(=O)CCC3)cc2cc(OC)ccc21 (stereo not drawn) | 27 | 250 |  |  | 200 |  | 250 |  | 250 | 250 |  |  |  | 250 |  | 250 | 1000
COC1=CC(=O)C[C@@H](C)[C@]12Oc1c(Cl)c(OC)cc(OC)c1C2=O [GRISEOFULVIN] |  |  |  |  |  |  |  |  |  |  |  |  |  | 500 |  |  | 100
C=CCn1c(=O)c(C2C(C(=O)OCC)=C(N)N(NC(=O)c3ccncc3)C3=C2C(=O)CCC3)cc2ccccc21 (stereo not drawn) | 51 | 250 |  |  | 500 |  | 500 |  | 500 | 250 |  |  |  | 500 |  | 250 | > 1000
C=CCn1c(=O)c(C2C(C(=O)OCC)=C(N)N(NC(=O)c3ccncc3)C3=C2C(=O)CCC3)cc2cc(C)ccc21 (stereo not drawn) | 23 | 500 |  |  | 500 |  | 250 |  | 250 | 62.5 |  |  |  | 500 |  | 100 | 100
C=CCn1c(=O)c(C2C(C(=O)OC)=C(N)N(NC(=O)c3ccncc3)C3=C2C(=O)CC(C)(C)C3)cc2cc(Cl)ccc21 (stereo not drawn) | 87 | 200 |  |  | 250 |  | 500 |  | 500 | 100 |  |  |  | 500 |  | 200 | 1000
O=C(O)c1cn(C2CC2)c2cc(N3CCNCC3)c(F)cc2c1=O [CIPROFLOXACIN] |  | 25 |  |  | 25 |  |  |  |  |  |  |  |  |  |  | 50 | 
C=CCn1c(=O)c(C2C(C(=O)OCC)=C(N)N(NC(=O)c3ccncc3)C3=C2C(=O)CC(C)(C)C3)cc2cc(Cl)ccc21 (stereo not drawn) | 56 | 200 |  |  | 200 |  | 100 |  | 200 | 250 |  |  |  | 1000 |  | 250 | 500
CO[C@H]1/C=C/O[C@@]2(C)Oc3c(C)c(O)c4c(O)c(c(/C=N/N5CCN(C)CC5)c(O)c4c3C2=O)NC(=O)/C(C)=C\C=C\[C@H](C)[C@H](O)[C@@H](C)[C@@H](O)[C@@H](C)[C@H](OC(C)=O)[C@@H]1C [RIFAMPIN] | 98 |  |  |  |  |  |  |  |  |  | 40 (≈ 48.6 µM) |  |  |  |  |  | 
C=CCn1c(=O)c(C2C(C(=O)OCC)=C(N)N(NC(=O)c3ccncc3)C3=C2C(=O)CC(C)(C)C3)cc2ccccc21 (stereo not drawn) | 84 | 100 |  |  | 50 |  | 500 |  | 500 | 500 |  |  |  | 250 |  | 250 | 500
COc1cc([C@@H]2c3cc4c(cc3[C@@H](O[C@@H]3O[C@@H]5CO[C@@H](C)O[C@H]5[C@H](O)[C@H]3O)[C@H]3COC(=O)[C@H]23)OCO4)cc(OC)c1O [ETOPOSIDE] |  |  |  | 7.46 (≈ 12.7 µM) |  |  |  |  |  |  |  |  |  |  |  |  | 
C=CCn1c(=O)c(C2C(C(=O)OC)=C(N)N(NC(=O)c3ccncc3)C3=C2C(=O)CCC3)cc2cc(Cl)ccc21 (stereo not drawn) | 89 | 200 |  |  | 250 |  | 500 |  | 500 | 200 |  |  |  | 1000 |  | 250 | 1000
CC1(C)S[C@@H]2[C@H](NC(=O)[C@H](N)c3ccccc3)C(=O)N2[C@H]1C(=O)O [AMPICILLIN] |  | 100 |  |  | 100 |  |  |  | 250 | 250 |  |  |  |  |  | 250 | 
C=CCn1c(=O)c(C2C(C(=O)OC(C)C)=C(N)N(NC(=O)c3ccncc3)C3=C2C(=O)CCC3)cc2cc(C)ccc21 (stereo not drawn) | 22 | 200 |  |  | 250 |  | 500 |  | 500 | 500 |  |  |  | 1000 |  | 500 | 1000
C=CCn1c(=O)c(C2C(C(=O)OC)=C(N)N(NC(=O)c3ccncc3)C3=C2C(=O)CC(C)(C)C3)cc2ccccc21 (stereo not drawn) | 74 | 200 |  |  | 200 |  | 125 |  | 125 | 200 |  |  |  | 250 |  | 200 | > 1000
C=CCn1c(=O)c(C2C(C(=O)OC(C)C)=C(N)N(NC(=O)c3ccncc3)C3=C2C(=O)CCC3)cc2cc(Cl)ccc21 (stereo not drawn) | 89 | 500 |  |  | 250 |  | 200 |  | 200 | 200 |  |  |  | 500 |  | 200 | 500
C=CCn1c(=O)c(C2C(C(=O)OCC)=C(N)N(NC(=O)c3ccncc3)C3=C2C(=O)CCC3)cc2cc(OC)ccc21 (stereo not drawn) | 54 | 500 |  |  | 250 |  | 200 |  | 200 | 100 |  |  |  | 250 |  | 125 | 1000
C=CCn1c(=O)c(C2C(C(=O)OC)=C(N)N(NC(=O)c3ccncc3)C3=C2C(=O)CCC3)cc2cc(C)ccc21 (stereo not drawn) | 58 | 250 |  |  | 500 |  | 100 |  | 62.5 | 500 |  |  |  | 500 |  | 500 | > 1000
NNC(=O)c1ccncc1 [ISONIAZID] | 99 |  |  |  |  |  |  |  |  |  | 0.2 (≈ 1.46 µM) |  |  |  |  |  | 
C=CCn1c(=O)c(C2C(C(=O)OC(C)C)=C(N)N(NC(=O)c3ccncc3)C3=C2C(=O)CCC3)cc2ccccc21 (stereo not drawn) | 65 | 125 |  |  | 100 |  | 500 |  | 250 | 500 |  |  |  | 1000 |  | 500 | 500
C=CCn1c(=O)c(C2C(C(=O)OC)=C(N)N(NC(=O)c3ccncc3)C3=C2C(=O)CCC3)cc2ccccc21 (stereo not drawn) | 74 | 250 |  |  | 500 |  | 50 |  | 100 | 125 |  |  |  | 500 |  | 125 | 500
